In US8415299B2, “Methods for improved avian performance” (priority 2004, dated 2013):
Read-outs that look alike come from different tables or passages of the source.

Assays:
[1] = test system: 102-week old Hy-Line W-36 White Leghorn hens
Procedure: Experiment 2. […] The photoperiod was 17 hours of light per day (0330 hours to 2030 hours).
The objective was to use T4 to humanely induce molting in hens that are continuously provided with ad libitum access to palatable feed meeting or exceeding all National Research Council (1994) standards. Developing a fully efficacious yet affordable molting protocol was predicated on determining the minimum effective level for T4 supplementation. Factors that potentially may affect the required level of T4 supplementation include: (1) uncertainty regarding the efficiency of T4 absorption by the gastrointestinal tract, (2) the possibility that continuous dietary ingestion of T4 could trigger substantially different biological responses when compared single daily injections, and (3) the likelihood that daily T4 intake would diminish in parallel with molt-related reductions in feed intake associated with cessation in egg production. A spontaneous and voluntary loss of appetite (anorexia) commonly accompanies seasonal molting and broodiness in a variety of avian species (Berry, 2003; Webster, 2003). Accordingly, the responses of hens to diets containing 10, 20, and 40 mg T4/kg, to bracket the anticipated range of T4 needed to cause an effective molt, were determined.

[2] = test system: 96-week old Hy-Line W-36 White Leghorn hens
From the text: Experiment 3. […] The photoperiod serves as the primary environmental signal that regulates reproductive function in many avian species. Increasing the photoperiod promotes maturation of the gonads and reproductive tract, whereas reducing the photoperiod causes the gonads and reproductive tract to regress and molting to occur.

[3] = 20 mg/kg feed, 8 hr L, Day 30-34
[4] = 20 mg/kg feed, 8 hr L, Days 13-15
[5] = 20 mg/kg feed, 8 hr L, Days 16-22
[6] = 20 mg/kg feed, 17 hr L, Day 30-34
[7] = 20 mg/kg feed, 17 hr L, Days 13-15
[8] = 20 mg/kg feed, 17 hr L, Days 16-22
[9] = 40 mg T4/kg test diet, Chamber 6 (17 hr light)
[10] = 40 mg/kg feed, 8 hr L, Day 30-34
[11] = 40 mg/kg feed, 8 hr L, Days 13-15
[12] = 40 mg/kg feed, 8 hr L, Days 16-22
[13] = 40 mg/kg feed, 17 hr L, Day 30-34
[14] = 40 mg/kg feed, 17 hr L, Days 13-15

## N[C@@H](Cc1cc(I)c(Oc2cc(I)c(O)c(I)c2)c(I)c1)C(=O)O [L-thyroxine, 3,5,3′,5′-tetraiodothyronine]
[1]; 40 mg/kg feed 6 d, day 22
  Hen-day egg production: 25%
[1]; 40 mg/kg feed 6 d, day 24
  Hen-day egg production: 50%
[1]; 40 mg/kg feed 10 d, Day 11-14
  Feed consumption (FC): 19.3 g/hen/d
  Feed consumption change from days 2-4 (% FCC): −83.4%
[1]; 40 mg/kg feed 10 d, Days 2-4 (pre-treatment)
  Feed consumption (FC): 116.3 g/hen/d
[1]; 40 mg/kg feed 10 d, Days 5-7
  Feed consumption (FC): 37.3 g/hen/d
  Feed consumption change from days 2-4 (% FCC): −67.9%
[1]; 40 mg/kg feed 10 d, Days 8-10
  Feed consumption (FC): 22.0 g/hen/d
  Feed consumption change from days 2-4 (% FCC): −81.1%
[1]; 40 mg/kg feed 10 d, day 12
  Hen-day egg production: 0%
[1]; 40 mg/kg feed 10 d, day 14
  Hen-day egg production: 0%
[1]; 40 mg/kg feed 10 d, day 16
  Hen-day egg production: 0%
[1]; 40 mg/kg feed 10 d, day 18
  Hen-day egg production: 0%
[1]; 40 mg/kg feed 10 d, day 20
  Hen-day egg production: 0%
[1]; 10, 20, 40 mg T4/kg feed, 6 or 10 days
  Mortality: No mortality occurred in any of the Groups
[1]; 20 and 40 mg T4/kg feed
  Time within which egg production was consistently reduced: ≤ 4 days
[2]; 20 mg T4/kg groups, either chamber
  Molting: None of the hens in the Control groups or 20 mg T4/kg groups molted in either chamber
[2]; 20 mg T4/kg, Chamber 6 (17 hr light)
  Time within which egg production was significantly reduced: ≤ 8 days
[2]; 20 mg/kg feed 12 d from day 13, 8 hr L, day 30
  Hen-day egg production: 6.3%
[2]; [3]
  Feed consumption (FC): 82.5 g/hen/d
  Feed consumption change from days 1-12 (% FCC): −32.0%
[2]; 20 mg/kg feed, 8 hr L, Days 1-12 (pre-treatment)
  Feed consumption (FC): 121.3 g/hen/d
[2]; [4]
  Feed consumption (FC): 41.8 g/hen/d
  Feed consumption change from days 1-12 (% FCC): −65.5%
[2]; [5]
  Feed consumption (FC): 44.5 g/hen/d
  Feed consumption change from days 1-12 (% FCC): −63.3%
[2]; [6]
  Feed consumption (FC): 135.0 g/hen/d
  Feed consumption change from days 1-12 (% FCC): 11.1%
[2]; 20 mg/kg feed, 17 hr L, Days 1-12 (pre-treatment)
  Feed consumption (FC): 121.5 g/hen/d
[2]; [7]
  Feed consumption (FC): 58.0 g/hen/d
  Feed consumption change from days 1-12 (% FCC): −52.3%
[2]; [8]
  Feed consumption (FC): 51.8 g/hen/d
  Feed consumption change from days 1-12 (% FCC): −57.4%
[2]; 40 mg T4/kg Group, Chamber 5 (8 hr light), 7/12
  Hens that molted fully: 58%
[2]; [9]
  Loss of initial body weight: approximately 18%
  Reduction of feed intake: approximately 65%
[2]; 40 mg T4/kg, Chamber 6 (17 hr light)
  Time within which egg production was significantly reduced: ≤ 6 days
[2]; 40 mg T4 kg Group, Chamber 6 (17 hr light)
  Hens that molted fully: 100%
[2]; 40 mg/kg feed 12 d from day 13, 17 hr L, day 22
  Hen-day egg production: 0.0%
[2]; 40 mg/kg feed 12 d from day 13, 17 hr L, day 24
  Hen-day egg production: 0.0%
[2]; 40 mg/kg feed 12 d from day 13, 17 hr L, day 26
  Hen-day egg production: 0.0%
[2]; 40 mg/kg feed 12 d from day 13, 17 hr L, day 28
  Hen-day egg production: 0.0%
[2]; 40 mg/kg feed 12 d from day 13, 17 hr L, day 30
  Hen-day egg production: 0.0%
[2]; 40 mg/kg feed 12 d from day 13, 17 hr L, day 32
  Hen-day egg production: 0.0%
[2]; 40 mg/kg feed 12 d from day 13, 17 hr L, day 34
  Hen-day egg production: 0.0%
[2]; [10]
  Feed consumption (FC): 104.8 g/hen/d
  Feed consumption change from days 1-12 (% FCC): −9.5%
[2]; 40 mg/kg feed, 8 hr L, Days 1-12 (pre-treatment)
  Feed consumption (FC): 115.8 g/hen/d
[2]; [11]
  Feed consumption (FC): 36.8 g/hen/d
  Feed consumption change from days 1-12 (% FCC): −68.2%
[2]; [12]
  Feed consumption (FC): 35.3 g/hen/d
  Feed consumption change from days 1-12 (% FCC): −69.5%
[2]; [13]
  Feed consumption (FC): 93.3 g/hen/d
  Feed consumption change from days 1-12 (% FCC): −9.7%
[2]; 40 mg/kg feed, 17 hr L, Days 1-12 (pre-treatment)
  Feed consumption (FC): 103.3 g/hen/d
[2]; [14]
  Feed consumption (FC): 42.0 g/hen/d
  Feed consumption change from days 1-12 (% FCC): −59.3%
[2]; 40 mg/kg feed, 17 hr L, Days 16-22
  Feed consumption change from days 1-12 (% FCC): −63.7%
[2]; 20, 40 mg T4/kg feed 12 days
  Mortality: No mortality occurred in any of the Groups
[2]; 20 and 40 mg T4/kg, Chamber 5 (8 hr light)
  Time within which egg production was significantly reduced: ≤ 4 days
